Like-named read-outs stand apart in the source and are kept apart here.
Target: T1, Sphingomyelin Synthase 2 (SMS2) (Homo sapiens, UniProt Q8NHU3)
T1 construct: made in house; used as homogenate
T1 sequence (Q8NHU3 1-365): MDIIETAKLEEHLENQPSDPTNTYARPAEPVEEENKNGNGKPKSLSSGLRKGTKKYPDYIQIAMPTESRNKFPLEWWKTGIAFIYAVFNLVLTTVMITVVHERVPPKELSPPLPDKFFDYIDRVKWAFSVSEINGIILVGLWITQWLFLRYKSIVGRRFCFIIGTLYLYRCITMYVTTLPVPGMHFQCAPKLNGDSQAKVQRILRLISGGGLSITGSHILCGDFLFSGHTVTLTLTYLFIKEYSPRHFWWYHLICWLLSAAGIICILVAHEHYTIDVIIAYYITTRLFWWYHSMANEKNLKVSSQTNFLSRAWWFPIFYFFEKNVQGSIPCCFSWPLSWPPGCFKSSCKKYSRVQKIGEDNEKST
Test: In vitro inhibition of sphingomyelin synthase 2, HPLC fluorogenic quantitative detecting method (C6-NBD-ceramide to C6-NBD-SM, SMS2 high-expressed insect cell homogenate)
Assay type: biochemical
Conditions: for IC50: read-out: SMS2 Median Inhibitory Concentration IC50; for inhibition at 5 µM / inhibition at 10 µM / inhibition at 50 µM: read-out: inhibition rate
Source text: The second aim of the present invention is to show the use of 2-alkoxy benzene formyl arylamines in preparing SMS small-molecule inhibitors. This invention evaluate SMS inhibitory activity of 2-alkoxy benzene formyl arylamines as scheme I through HPLC fluorogenic quantitative detecting method reported (Xiaodong Deng; Hong Sun; et al. Analytical Letters, 2012, 45:12, 1581-1589), which can make it possible to calculate the catalytic activity difference of SMS treated with inhibitors or not through content changes of NBD-ceramide and NBD-sphingomyelin.
9. The organic solvents were purchased from Shanghai Sinopharm Reagent Company; methanol is of HPLC grade; water is ultrapure water filtrated by Milli-Q pump and deionized and ultrafiltrated by 0.22 μm ultrafiltration membrane. Other biological supplies are purchased in domestic companies. 10. Preparation of SMS homogenate extraction buffer (Buffer1): (50 mM Tris hydrochloride, pH 7.4, 5% anhydrous sucrose, 1 mM ethylenediaminetetraacetic acid) 1.2114 g tris(hydroxymethyl)aminomethane hydrochloride (Tris-HCl) was dissolved in 100 ml distilled water. Then 84 ml 0.1 mol/L hydrochloric acid was added. Constant volume to 200 ml. Finally, 10 g sucrose and 58.45 mg EDTA were dissolved in the mixture. 11. Preparation of SMS test buffer […]: (100 mM Hepes, 30 mM MnCl2, 3% fatty acid free BSA): 1.1916 g 4-(2-hydroxyethyl)-1-peperazineethanesulfonic acid (Hepes), 0.2969 g MnCl2.4H2O and 0.3 g fatty acid free bovine serum albumin were dissolved in distilled water then constant volume to 50 ml. 12. Preparation of under tested compound solution: To each accurate weighed compound for 1˜2 mg, an appropriate amount of DMSO was added to formulate a stock solution of 6 mM precisely. To a certain volume of the DMSO stock solution of the test compound, the appropriate volume of DMSO was added to dilute the solution to the desired concentration. 13. SMS2 high-expressed insect cell homogenate was prepared by Xu Yanhui group from Institutes of Biomedical Sciences, Fudan University. Part 1 Activity Assay for Inhibition of 2-Alkoxy-Benzoyl Aromatic Amines to Sphingomyelin Synthase 2
250 μL tri-distilled water, 30 μL Buffer2, 4 μL SMS2 high-expressed insect cell homogenate (total protein content is 0.5 μg/μL) and 10 μL DMSO or DMSO solution of under tested compound were added to 1.5 mL eppendorf tube, vortex mixed for 30 seconds and then incubated in a 37° C. water bath for 0.5 h. 3 μL ethanol solution of DMPC (40 mM) and 3 μL ethanol solution of C6-NBD-Ceramide (1.16 mM) were added, vortex mixed for 30 seconds, and then incubate in a 37° C. water bath for 2.0 hours. To it 600 μL anhydrous ethanol was added vortex mixed for 1 minute and centrifuged 10 minutes in 10000 rpm and 600 μL supernatant was taken out and stored at 4° C. for HPLC analysis.
Using the same HPLC fluorogenic quantitative detecting method as reference (Xiaodong Deng; Hong Sun; et al. Analytical Letters, 2012, 45:12, 1581-1589) to analysize samples obtained above. Analysize and record peak areas of C6-NBD-SM (Asm) and C6-NBD-Ceramide (Acer) of each sample from blank group, positive control group (compound D2) and under tested compound group. The data were parallelly determined for 3 times. Calculate inhibition rate from the formula below: […]
The DMSO stock solution of under tested compound (6 mM) was diluted stepwise into five concentration gradient. 10 μL solution of each concentration was added into the trial system to prepare samples with the method mentioned in the first step of application case 12. The Asm values of the five concentration solution of tested compound were measured, and the inhibition rate under the five concentration were calculated and fitted to obtain median inhibitory concentration (IC50). Each compound was measured three parallel groups. SMS2 median inhibitory concentration of Scheme I-1˜I-60 are listed below in Table 1: […]

[1] = five concentrations, three parallel groups, experimental value

Molecule | IC50 [1] [µM] | inhibition at 10 µM (at 10 μM) [%] | also measured
O=C(Nc1cccnc1)c1ccccc1OCc1ccccc1F [Scheme I-1, 2-(2-fluoro-benzyloxy)-N-(pyridin-3-yl) benzamide] |  |  | IC50: 3.5 µM; inhibition at 5 µM: 53.8%
Cc1ccc(Cl)cc1COc1ccccc1C(=O)Nc1cccnc1 [Scheme I-43, 2-((5-chloro-2-methyl)benzyloxy)-N-(pyridin-3-yl) benzamide] | 1.1 |  | inhibition rate (at 5 μM): 74.8%
2-((2-ethoxy) benzyloxy)-N-(pyridin-3-yl) benzamide [Scheme I-30] | 1.2 |  | inhibition rate (at 10 μM): 86.3%
O=C(Nc1cccnc1)c1ccc(Br)cc1OCc1ccccc1Cl [Scheme I-58, 4-bromo-2-(2-chloro-benzyloxy)-N-(pyridin-3-yl) benzamide] | > 50 | 19.4 | 
2-(3-cyano-benzyloxy)-N-(pyridin-3-yl) benzamide [Scheme I-4] | 60.7 |  | inhibition rate (at 50 μM): 66.0%
2-((4-ethyl) benzyloxy)-N-(pyridin-3-yl) benzamide [Scheme I-28] | > 100 |  | inhibition rate (at 10 μM): 10.1%
CCOC(=O)COc1cccc(COc2ccccc2C(=O)Nc2cccnc2)c1 [Scheme I-22] | > 100 | 15.3 | 
2-((4-methyl) benzyloxy)-N-(pyridin-3-yl) benzamide [Scheme I-14] | > 25 |  | inhibition rate (at 50 μM): 69.0%
O=C(Nc1cccnc1)c1cc([N+](=O)[O-])ccc1OCc1ccccc1Cl [Scheme I-57, 2-(2-chloro-benzyloxy)-5-nitro-N-(pyridin-3-yl) benzamide] | > 100 | 1.7 | 
2-((5-chloro-hexyloxy) benzyloxy)-N-(pyridin-3-yl) benzamide [Scheme I-39] | 0.5 |  | inhibition rate (at 5 μM): 85.5%
2-((2-benzyloxy) benzyloxy)-N-(pyridin-3-yl) benzamide [Scheme I-26] | 2.2 |  | inhibition rate (at 10 μM): 76.9%
Cc1c(Cl)cccc1COc1ccccc1C(=O)Nc1cccnc1 [Scheme I-44, 2-((3-chloro-2-methyl)benzyloxy)-N-(pyridin-3-yl) benzamide] | 3.8 |  | inhibition rate (at 5 μM): 47.0%
O=C(Nc1cccnc1)c1ccccc1OCc1cccc([N+](=O)[O-])c1 [Scheme I-3, 2-(3-nitro-benzyloxy)-N-(pyridin-3-yl) benzamide] | > 50 |  | inhibition at 50 µM (at 50 μM): 64.6%
COc1ccc(COc2ccccc2C(=O)Nc2cccnc2)cc1 [Scheme I-5, 2-((4-methoxy)benzyloxy)-N-(pyridin-3-yl) benzamide] | > 100 |  | inhibition at 50 µM (at 50 μM): 23%
O=C(Nc1cccnc1)c1ccc(Cl)cc1OCc1ccccc1Cl [Scheme I-56, 4-Chloro-2-(2-chloro-benzyloxy)-N-(pyridin-3-yl) benzamide] | > 50 | 20 | 
O=C(Nc1cccnc1)c1ccccc1OCc1ccccc1OCCCCCCl [Scheme I-35, 2-(2-(5-chloro-pentoxy)benzyloxy)-N-(pyridin-3-yl) benzamide] | 0.7 | 91.3 | 
O=C(Nc1cccnc1)c1ccccc1OCc1cc(Cl)ccc1OCCN1CCOCC1 [Scheme I-51, 2-((5-chloro-2-(2-morpholino-ethoxy))benzyloxy)-N-(pyridin-3-yl) benzamide] | > 50 | 24.9 | 
O=C(Nc1cccnc1)c1ccccc1OCc1ccccc1OCCCCCl [Scheme I-34, 2-(2-(4-chlorobutoxy)benzyloxy)-N-(pyridin-3-yl) benzamide] | 1.4 | 85.5 | 

Molecule | IC50 [1] [µM] | inhibition at 10 µM (at 10 μM) [%] | also measured
O=C(Nc1cccnc1)c1cc(Cl)ccc1OCc1c(Cl)cccc1Cl [Scheme I-54, 5-chloro-2-((2,6-dichlorophenyl)benzyloxy)-N-(pyridin-3-yl) benzamide] | > 25 | 42.3 | 
COCCCOc1ccc(Cl)cc1COc1ccccc1C(=O)Nc1cccnc1 [Scheme I-49, 2-((5-chloro-2-(3-methoxy-propoxy))benzyloxy)-N-(pyridin-3-yl) benzamide] | 4.1 | 75.3 | 
O=C(Nc1cccnc1)c1ccccc1OCc1cccc(F)c1 [Scheme I-2, 2-(3-fluoro-benzyloxy)-N-(pyridin-3-yl) benzamide] |  |  | IC50: 1.6 µM; inhibition at 5 µM: 69.3%
2-((4-trifluoromethyl) benzyloxy)-N-(pyridin-3-yl) benzamide [Scheme I-20] | > 100 |  | inhibition rate (at 10 μM): 3.9%
Cc1ccccc1COc1ccccc1C(=O)Nc1cccnc1 [Scheme I-11, 2-((2-methyl)benzyloxy)-N-(pyridin-3-yl) benzamide] |  |  | IC50: 1.5 µM; inhibition at 5 µM: 71.3%
O=C(Nc1cccnc1)c1ccccc1OCc1ccccc1C(F)(F)F [Scheme I-42, 2-((2-trifluoromethyl)benzyloxy)-N-(pyridin-3-yl) benzamide] | 2.1 |  | inhibition rate (at 5 μM): 65.5%
O=C(O)c1ccc(COc2ccccc2C(=O)Nc2cccnc2)cc1 [Scheme I-46, 4-((2-(pyridin-3-ylcarbamoyl)phenoxy)methyl) benzoic acid] | > 100 | 2.6 | 
O=C(Nc1cccnc1)c1ccccc1OCc1c(Cl)cccc1Cl [Scheme I-17, 2-((2,6-dichlorophenyl)benzyloxy)-N-(pyridin-3-yl) benzamide] | 0.7 |  | inhibition at 5 µM (at 5 μM): 77.2%
2-(2-cyano-benzyloxy)-N-(pyridin-3-yl) benzamide [Scheme I-6] | 31.8 |  | inhibition rate (at 50 μM): 50.0%
2-((5-fluoro-2-methyl) benzyloxy)-N-(pyridin-3-yl) benzamide [Scheme I-21] | 0.7 |  | inhibition rate (at 10 μM): 84.7%
2-((4-cyano) benzyloxy)-N-(pyridin-3-yl) benzamide [Scheme I-15] | > 100 |  | inhibition rate (at 50 μM): 15.0%
2-((3-methoxy) benzyloxy)-N-(pyridin-3-yl) benzamide [Scheme I-23] | 5.7 |  | inhibition rate (at 10 μM): 59.8%
2-((2,5-dimethoxy) benzyloxy)-N-(pyridin-3-yl) benzamide [Scheme I-25] | 2.8 |  | inhibition rate (at 10 μM): 78.9%
2-((2,6-dimethyl) benzyloxy)-N-(pyridin-3-yl) benzamide [Scheme I-29] | 0.9 |  | inhibition rate (at 10 μM): 88.8%
Cc1cccc(COc2ccccc2C(=O)Nc2cccnc2)c1 [Scheme I-10, 2-((3-methyl)benzyloxy)-N-(pyridin-3-yl) benzamide] | > 25 |  | inhibition at 50 µM (at 50 μM): 69.5%
COc1ccc(OCc2ccccc2Cl)c(C(=O)Nc2cccnc2)c1 [Scheme I-59, 2-(2-chloro-benzyloxy)-5-methoxy-N-(pyridin-3-yl) benzamide] | > 100 | 7.2 | 
O=C(Nc1cccnc1)c1ccccc1OCc1cccc(C(F)(F)F)c1 [Scheme I-41, 2-((3-trifluoromethyl)benzyloxy)-N-(pyridin-3-yl) benzamide] | > 100 | 10 | 

From patent US10196359B2, “2-alkyloxy benzene formyl arylamine compound and pharmaceutical use thereof” (FUDAN UNIVERSITY, priority 2014, dated 2019)
